From PubChem BioAssay AID1344 (Sanford-Burnham Center for Chemical Genomics, 2008)

Test system: CSM14.1 thapsigargin death, annexin V/PI flow, 24 h
Assay: annexin V/PI survival after thapsigargin – cell-based, undifferentiated CSM14.1, flow cytometry, orthogonal assay for ER stress death inhibitor project, late-stage follow-up (AID 1344)
Conditions: at 25 µM; hits give high values

Compound	survival [%]
COc1ccc(C2CC(=O)C3=C(C2)Nc2ccccc2NC3c2cccc(C(F)(F)F)c2)cc1OC (stereo unspecified)	95
CCOc1cccc(C2Nc3ccccc3NC3=C2C(=O)CC(c2ccc(OC)cc2)C3)c1 (stereo unspecified)	90
COc1ccc(C2CC(=O)C3=C(C2)Nc2ccccc2NC3c2cc(C)ccc2C)cc1 (stereo unspecified)	95
COc1ccc(C2CC(=O)C3=C(C2)Nc2ccccc2NC3c2cccc(Oc3ccccc3)c2)cc1OC (stereo unspecified)	95
O=C1CC(c2ccccc2)CC2=C1C(c1c(F)cccc1Cl)Nc1ccccc1N2 (stereo unspecified)	96
CCOc1cc(C2Nc3ccccc3NC3=C2C(=O)CC(c2ccc(OC)cc2)C3)cc(Cl)c1O (stereo unspecified)	93
CC1(C)CC(=O)C2=C(C1)Nc1ccccc1NC2c1ccc(-c2ccccc2)cc1 (stereo unspecified)	97
CSc1ccc(C2Nc3ccccc3NC3=C2C(=O)CC(c2ccccc2)C3)cc1 (stereo unspecified)	96
COc1ccc(C2CC(=O)C3=C(C2)Nc2ccccc2NC3c2cccc(Br)c2)cc1OC (stereo unspecified)	96
COc1ccc(C2CC(=O)C3=C(C2)Nc2ccccc2NC3c2ccccc2C(F)(F)F)cc1OC (stereo unspecified)	96
CCCOc1ccc(C2Nc3ccccc3NC3=C2C(=O)CC(c2ccc(OC)c(OC)c2)C3)cc1 (stereo unspecified)	92
